In PMC12736120, “First-in-Human Phase I Clinical Trial of SLC-391, a Novel and Selective AXL Inhibitor, in Patients with Advanced Solid Tumours” (Pharmaceuticals, 2025):

Assay: Phase I safety and tolerability (DLTs, adverse events, laboratory, ECG)
Format: in vivo
Experimental: This study employed a standard 3 + 3 dose escalation design with a starting dose of 25 mg QD. […] Dose escalation decisions took into account all available data from evaluable subjects as well as PK and the safety profile of prior dose cohorts. […] There was a minimum 5-day stagger between dosing of the first and second subjects in each dose cohort. Dose escalation decisions were made by a data review committee (DRC) composed of, at minimum, the medical monitor, at least one principal investigator, and a sponsor representative, per the study DRC Plan. Dose escalation could continue until 2 or more subjects in the same dose cohort experienced a dose-limiting toxicity (DLT). DLTs were defined as Grade 3 or 4 adverse drug reactions (ADRs), with grades as defined in the National Cancer Institute Common Toxicity Criteria for Adverse Events (NCI-CTCAE) version 5.0. […] The MTD was defined as the highest dose at which no more than 1 of 6 subjects experienced a DLT during cycle 1 of the study drug. The MTD would have been exceeded if 2 or more subjects in a dose cohort of up to 6 subjects experienced a DLT. Subjects could continue treatment until disease progression, unacceptable toxicity, death, withdrawal of consent, or loss to follow-up.
Before enrolment in the study, all patients received a detailed medical history and physical examination. Clinical laboratory evaluations included clinical chemistry, complete blood count, urinalysis, coagulation factors, and a lipid panel. Other safety assessments included vital signs, physical examination, electrocardiogram, and echocardiogram with multigated acquisition (ECHO/MUGA). Safety assessments were performed on days 1, 8, 15, and 21 of cycle 1, and on day 1 of cycles 2 to 6.

[1] = Grade 1, Overall Study (N = 35)
[2] = Grade 2, Overall Study (N = 35)

Q: What does the source list for `Nc1ncc(-c2cnn(C3CCNCC3)c2)cc1-c1nnc(CC2CC2)o1` [SLC-391, 3-(5-[cyclopropylmethyl]-1,3,4-oxadiazol-2-yl)-5-(1-[piperidin-4-yl]-1H-pyrazol-4-yl)-pyridin-2-amine]?
A: TEAE: Abdominal distension [1]: 4 (11.4) n (%); TEAE: Abdominal pain [1]: 4 (11.4) n (%); TEAE: Back pain [1]: 1 (2.9) n (%); TEAE: Blood and lymphatic system disorders [1]: 1 (2.9) n (%); TEAE: Chills [1]: 6 (17.1) n (%); TEAE: Constipation [1]: 10 (28.6) n (%); TEAE: Cough [1]: 6 (17.1) n (%); TEAE: Decreased appetite [1]: 7 (20.0) n (%); TEAE: Diarrhoea [1]: 14 (40.0) n (%); TEAE: Dizziness [1]: 4 (11.4) n (%); TEAE: Dysgeusia [1]: 1 (2.9) n (%); TEAE: Dyspnoea [1]: 2 (5.7) n (%); TEAE: Fatigue [1]: 10 (28.6) n (%); TEAE: Gastrointestinal disorders [1]: 15 (42.9) n (%); TEAE: General disorders and administration site conditions [1]: 12 (34.3) n (%); TEAE: Haematuria [1]: 4 (11.4) n (%); TEAE: Headache [1]: 5 (14.3) n (%); TEAE: Infections and infestations [1]: 1 (2.9) n (%); TEAE: Investigations [1]: 7 (20.0) n (%); TEAE: Metabolism and nutrition disorders [1]: 5 (14.3) n (%); TEAE: Musculoskeletal and connective tissue disorders [1]: 7 (20.0) n (%); TEAE: Nausea [1]: 15 (42.9) n (%); TEAE: Nervous system disorders [1]: 11 (31.4) n (%); TEAE: Oedema peripheral [1]: 3 (8.6) n (%); TEAE: Psychiatric disorders [1]: 3 (8.6) n (%); TEAE: Pyrexia [1]: 4 (11.4) n (%); TEAE: Renal and urinary disorders [1]: 3 (8.6) n (%); TEAE: Respiratory, thoracic, and mediastinal disorders [1]: 5 (14.3) n (%); TEAE: Skin and subcutaneous tissue disorders [1]: 6 (17.1) n (%); TEAE: Vomiting [1]: 13 (37.1) n (%); TEAE: Weight decreased [1]: 6 (17.1) n (%); Any treatment-emergent adverse event (TEAE) (Grade 2, Overall BID (N = 15)): 7 (46.7) n (%); TEAE: Abdominal distension (Grade 2, Overall BID (N = 15)): 1 (6.7) n (%); TEAE: Abdominal pain (Grade 2, Overall BID (N = 15)): 0 n (%); TEAE: Back pain (Grade 2, Overall BID (N = 15)): 2 (13.3) n (%); TEAE: Blood and lymphatic system disorders (Grade 2, Overall BID (N = 15)): 0 n (%); TEAE: Constipation (Grade 2, Overall BID (N = 15)): 2 (13.3) n (%); TEAE: Cough (Grade 2, Overall BID (N = 15)): 1 (6.7) n (%); TEAE: Decreased appetite (Grade 2, Overall BID (N = 15)): 4 (26.7) n (%); TEAE: Diarrhoea (Grade 2, Overall BID (N = 15)): 2 (13.3) n (%); TEAE: Dysgeusia (Grade 2, Overall BID (N = 15)): 2 (13.3) n (%); TEAE: Dyspnoea (Grade 2, Overall BID (N = 15)): 5 (33.3) n (%); TEAE: Fatigue (Grade 2, Overall BID (N = 15)): 5 (33.3) n (%); TEAE: Gastrointestinal disorders (Grade 2, Overall BID (N = 15)): 5 (33.3) n (%); TEAE: General disorders and administration site conditions (Grade 2, Overall BID (N = 15)): 6 (40.0) n (%); TEAE: Haematuria (Grade 2, Overall BID (N = 15)): 1 (6.7) n (%); TEAE: Infections and infestations (Grade 2, Overall BID (N = 15)): 5 (33.3) n (%); TEAE: Investigations (Grade 2, Overall BID (N = 15)): 1 (6.7) n (%); TEAE: Metabolism and nutrition disorders (Grade 2, Overall BID (N = 15)): 5 (33.3) n (%); TEAE: Musculoskeletal and connective tissue disorders (Grade 2, Overall BID (N = 15)): 3 (20.0) n (%); TEAE: Nausea (Grade 2, Overall BID (N = 15)): 4 (26.7) n (%); TEAE: Nervous system disorders (Grade 2, Overall BID (N = 15)): 2 (13.3) n (%); TEAE: Oedema peripheral (Grade 2, Overall BID (N = 15)): 1 (6.7) n (%); TEAE: Psychiatric disorders (Grade 2, Overall BID (N = 15)): 2 (13.3) n (%); TEAE: Pyrexia (Grade 2, Overall BID (N = 15)): 0 n (%); TEAE: Renal and urinary disorders (Grade 2, Overall BID (N = 15)): 1 (6.7) n (%); TEAE: Respiratory, thoracic, and mediastinal disorders (Grade 2, Overall BID (N = 15)): 6 (40.0) n (%); TEAE: Skin and subcutaneous tissue disorders (Grade 2, Overall BID (N = 15)): 0 n (%); TEAE: Urinary tract infection (Grade 2, Overall BID (N = 15)): 3 (20.0) n (%); TEAE: Vascular disorders (Grade 2, Overall BID (N = 15)): 1 (6.7) n (%); TEAE: Vomiting (Grade 2, Overall BID (N = 15)): 1 (6.7) n (%); Any treatment-emergent adverse event (TEAE) (Grade 2, Overall QD (N = 20)): 12 (60.0) n (%); TEAE: Abdominal distension (Grade 2, Overall QD (N = 20)): 1 (5.0) n (%); TEAE: Abdominal pain (Grade 2, Overall QD (N = 20)): 1 (5.0) n (%); TEAE: Back pain (Grade 2, Overall QD (N = 20)): 1 (5.0) n (%); TEAE: Blood and lymphatic system disorders (Grade 2, Overall QD (N = 20)): 1 (5.0) n (%); TEAE: Constipation (Grade 2, Overall QD (N = 20)): 2 (10.0) n (%); TEAE: Cough (Grade 2, Overall QD (N = 20)): 0 n (%); TEAE: Decreased appetite (Grade 2, Overall QD (N = 20)): 1 (5.0) n (%); TEAE: Diarrhoea (Grade 2, Overall QD (N = 20)): 3 (15.0) n (%); TEAE: Dysgeusia (Grade 2, Overall QD (N = 20)): 1 (5.0) n (%); TEAE: Dyspnoea (Grade 2, Overall QD (N = 20)): 4 (20.0) n (%); TEAE: Fatigue (Grade 2, Overall QD (N = 20)): 6 (30.0) n (%); TEAE: Gastrointestinal disorders (Grade 2, Overall QD (N = 20)): 6 (30.0) n (%); TEAE: General disorders and administration site conditions (Grade 2, Overall QD (N = 20)): 8 (40.0) n (%); TEAE: Haematuria (Grade 2, Overall QD (N = 20)): 0 n (%); TEAE: Infections and infestations (Grade 2, Overall QD (N = 20)): 3 (15.0) n (%); TEAE: Investigations (Grade 2, Overall QD (N = 20)): 0 n (%); TEAE: Metabolism and nutrition disorders (Grade 2, Overall QD (N = 20)): 2 (10.0) n (%); TEAE: Musculoskeletal and connective tissue disorders (Grade 2, Overall QD (N = 20)): 2 (10.0) n (%); TEAE: Nausea (Grade 2, Overall QD (N = 20)): 4 (20.0) n (%); TEAE: Nervous system disorders (Grade 2, Overall QD (N = 20)): 2 (10.0) n (%); TEAE: Oedema peripheral (Grade 2, Overall QD (N = 20)): 0 n (%); TEAE: Psychiatric disorders (Grade 2, Overall QD (N = 20)): 0 n (%); TEAE: Pyrexia (Grade 2, Overall QD (N = 20)): 1 (5.0) n (%); TEAE: Renal and urinary disorders (Grade 2, Overall QD (N = 20)): 1 (5.0) n (%); TEAE: Respiratory, thoracic, and mediastinal disorders (Grade 2, Overall QD (N = 20)): 6 (30.0) n (%); TEAE: Skin and subcutaneous tissue disorders (Grade 2, Overall QD (N = 20)): 3 (15.0) n (%); TEAE: Urinary tract infection (Grade 2, Overall QD (N = 20)): 1 (5.0) n (%); TEAE: Vascular disorders (Grade 2, Overall QD (N = 20)): 2 (10.0) n (%); TEAE: Vomiting (Grade 2, Overall QD (N = 20)): 2 (10.0) n (%); Any treatment-emergent adverse event (TEAE) [2]: 19 (54.3) n (%); TEAE: Abdominal distension [2]: 2 (5.7) n (%); TEAE: Abdominal pain [2]: 1 (2.9) n (%); TEAE: Back pain [2]: 3 (8.6) n (%); TEAE: Blood and lymphatic system disorders [2]: 1 (2.9) n (%); TEAE: Constipation [2]: 4 (11.4) n (%); TEAE: Cough [2]: 1 (2.9) n (%); TEAE: Decreased appetite [2]: 5 (14.3) n (%); TEAE: Diarrhoea [2]: 5 (14.3) n (%); TEAE: Dysgeusia [2]: 3 (8.6) n (%); TEAE: Dyspnoea [2]: 9 (25.7) n (%); TEAE: Fatigue [2]: 11 (31.4) n (%); TEAE: Gastrointestinal disorders [2]: 11 (31.4) n (%); TEAE: General disorders and administration site conditions [2]: 14 (40.0) n (%); TEAE: Haematuria [2]: 1 (2.9) n (%); TEAE: Infections and infestations [2]: 8 (22.9) n (%); TEAE: Investigations [2]: 1 (2.9) n (%); TEAE: Metabolism and nutrition disorders [2]: 7 (20.0) n (%); TEAE: Musculoskeletal and connective tissue disorders [2]: 5 (14.3) n (%); TEAE: Nausea [2]: 8 (22.9) n (%); TEAE: Nervous system disorders [2]: 4 (11.4) n (%); TEAE: Oedema peripheral [2]: 1 (2.9) n (%); TEAE: Psychiatric disorders [2]: 2 (5.7) n (%); TEAE: Pyrexia [2]: 1 (2.9) n (%); TEAE: Renal and urinary disorders [2]: 2 (5.7) n (%); TEAE: Respiratory, thoracic, and mediastinal disorders [2]: 12 (34.3) n (%); TEAE: Skin and subcutaneous tissue disorders [2]: 3 (8.6) n (%); TEAE: Urinary tract infection [2]: 4 (11.4) n (%); TEAE: Vascular disorders [2]: 3 (8.6) n (%); TEAE: Vomiting [2]: 3 (8.6) n (%); Any treatment-emergent adverse event (TEAE) (Grade 3, Overall BID (N = 15)): 6 (40.0) n (%); TEAE: Blood and lymphatic system disorders (Grade 3, Overall BID (N = 15)): 1 (6.7) n (%); TEAE: Diarrhoea (Grade 3, Overall BID (N = 15)): 1 (6.7) n (%); TEAE: Dyspnoea (Grade 3, Overall BID (N = 15)): 0 n (%); TEAE: Fatigue (Grade 3, Overall BID (N = 15)): 1 (6.7) n (%); TEAE: Gastrointestinal disorders (Grade 3, Overall BID (N = 15)): 1 (6.7) n (%); TEAE: General disorders and administration site conditions (Grade 3, Overall BID (N = 15)): 1 (6.7) n (%); TEAE: Infections and infestations (Grade 3, Overall BID (N = 15)): 1 (6.7) n (%)
